# Measured values reported in patent US11261210B2, “Glycosylated antitumor ether lipids as novel cancer stem cell cytotoxic agents” (UNIVERSITY OF MANITOBA, priority 2012, dated 2022).
# Tests used:
# [1] = system: BT-474 stem cell tumorspheres; assay: Viability of BT-474 stem cell tumorspheres (MTS assay); type: cell-based, human; details: for Viability (% 0f control) / loss of viability / toxicity against the cancer stem cells: 6 days; for Viability (% 0f control): Table 2; for toxicity against the cancer stem cells: BT-474 spheroids
# Description: FIG. 6. Effect of β-O-Gln, α-O-Gln, β-C-Gln and ET-18-OCH3 on the viability of BT-474 stem cell tumorspheres. BT-474 cancer stem cells were grown for 7 days in ultra low adhesion 6 well plates. The tumorspheres formed were harvested, trypsinised and cell numbers were determined. Equal numbers of cells were dispersed into 48-well plates in mammocult medium and incubation was under static conditions. Wells with only medium but no cells were treated in an identical manner to serve as blanks. After spheres were formed, β-O-Gln, α-O-Gln, β-C-Gln or ET-18-OCH3 (0, 10, 20, 30 μM) were added and incubation was for a total of 6 days. At the end of the incubation, the MTS reagent was added to each well and the plates were rotated on a Nutator mixer in a 5% CO2 incubator for 4 h. The absorbance of each well was read at 470 nm. The results are the means±standard deviation of 4 independent determinations.
# (§1) Cell viability assay: Cell viability was determined by the Cell Titre 96 Aqueous One solution proliferation assay ((MTS assay; Promega) according to the instructions of the manufacturer.
# The viability of the material at the end of the incubation was determined using the MTS assay. […] In cells incubated with 10 μM of β-C-Gln, 90% of the cells were not viable. […] In contrast, in experiments with ET-18-OCH3, 10 or 20 μM ET-18-OCH3 had little effect on the viability of BT-474 spheroids and at a concentration of 30 μM viability was around 45% relative to controls. The results of the integrity studies correlate well with the viability studies.
# We also investigated the effect of α-O-Galn, β-O-Galn or α-O-Mann on the viability of BT-474 spheroids. The spheroids were incubated with the compounds for 6 days and the viability was assessed by the MTS assay. […] Viability was down to around 10% at 10 μM concentration of the compound. […] At a concentration of 30 μM a significant proportion (26-32%) of the BT-474 cancer stem cells were still viable. The cytotoxic efficacy of GAELs is dependent on the type of sugar moiety and the anomeric form in some instances.
# [2] = system: JIMT1 stem cell tumorspheres; assay: Viability of JIMT1 stem cell tumorspheres (MTS assay); type: cell-based, human; details: 6 days
# Description: FIG. 8. Effect of β-O-Gln, α-O-Gln, β-C-Gln and ET-18-OCH3 on the viability of JIMT1 stem cell tumorspheres. BT-474 cancer stem cells were grown for 7 days in ultra low adhesion 6-well plates. The tumorspheres formed were harvested, trypsinised and cell numbers were determined. Equal numbers of cells were dispersed into 48-well non-treated plates in mammocult medium and incubation was under static conditions. Wells with only medium but no cells were treated in an identical manner to serve as blanks. After spheres were formed, O-Gln, C-Gln or ET-18-OCH3 (0, 10, 20, 30 μM) were added and incubation was for a total of 6 days. At the end of the incubation, the MTS reagent was added to each well and the plates were mixed in a nutator in a 5% CO2 incubator for 4 h. The absorbance of each well was read at 470 nm. The results are the means±standard deviation of 4 independent determinations.
# as §1
# The viability of cells in spheroids incubated with 20 or 30 μM ET-18-OCH3 was between 30-40% of controls.
# cancer cell lines = details: Xu et al., ChemMedChem in press; cited from earlier work
# [3] = Generation of large acidic vacuoles; type: cell-based
# Text: Autophagy 5, 835-84663). Furthermore an active endocytosis pathway was essential for GAEL activity (Samadder P, Byun H-S, Bittman R, Arthur G (2011) The endocytosis pathway is required for the cytotoxic effects of glycosylated antitumor ether lipids, Anticancer Res 31, 3809-3818). The generation of the large acidic vacuoles is a hallmark of this non-apoptosis death pathway induced by GAELs.
# cancer stem cells = assay: Tumorsphere formation by freshly sorted cancer stem cells; type: cell-based, human; details: added to freshly sorted cancer stem cells, 10 μM and above, 6 days
# Text: Breast cancer stem cell enriched cell population was obtained by staining breast cancer cell lines BT-474 and JIMT-1 for aldehyde dehydrogenase 1 (ALDH1) using the assay kit from Stem Cell Technologies (Vancouver BC, Canada) according to the instructions of the manufacturer with the appropriate controls. BT-474 is a ductal carcinoma cell line (Lasfargues E Y, Coutinho W G, Dion A S (1979) A human breast tumor cell line (BT-474) that supports mouse mammary tumor virus replication. In Vitro 15, 723-729) while JIMT-1 is a carcinoma cell line that is resistant to herceptin (Tanner M, Kapanen A J, Junttila T, Raheem O, Grenman S, Elo J, Elenius K, Isola J (2004). Characterization of a novel cell line established from a patient with herceptin-resistant breast cancer. Mol Cancer Ther 3, 1585-1592). Following the staining, the cells stained for ALDH1 were sorted from the bulk population by flow cytometry on a 4 laser MoFloXPP high speed/pressure cell sorter. The cells were pelleted by centrifugation, resuspended in supplemented Mammocult medium (Stem Cell Technologies) and dispersed into ultra-low adhesive 6-well plates or 35 mm dishes for 7 days to allow the formation of spheroids (mammospheres). After 7 days, the spheres were separated from single cells (dead non-stem cells) by sieving the contents of the well through a […] nylon cell strainer (BD Falcon). The spheres retained in the sieve are washed with Hanks buffer and subsequently trypsinised to obtain a single cell suspension of cancer stem cells. The cell numbers were determined with a Coulter ZM counter and the cells were seeded into the appropriate low adhesion tissue culture ware for various studies.
# AEL solutions in ethanol were diluted into supplemented mammocult medium generally at twice the desired final concentration. A volume equal to that in the wells was added to dilute the drug to the desired concentration in each well. Subsequently any further addition of drug to the wells, utilized AEL solution prepared at the desired concentration. […]
# BT474 cancer stem cells = assay: Trypan blue dye exclusion viability of BT474 cancer stem cells; type: cell-based, human; details: BT474 cancer stem cells incubated with compound
# Description: Trypan blue dye exclusion assay using the TC10 automated cell counter (BioRad) was also used for some studies.
# We investigated the effects of the GAELs and the ALPET-18-OCH3 on the ability of the cancer stem cells to form tumorspheres. […] This was a concentration dependent event and at concentrations greater than 10 μM spheroid formation was completely disrupted.
# [4] = system: JIMT-1 stem cell spheroids; assay: Morphology of JIMT-1 stem cell spheroids; type: cell-based, human; details: 6 days, FIG. 7B
# Description: FIG. 7. A. Effect of β-O-Gln, β-C-Gln or ET-18-OCH3 on morphology of JIMT-1 stem cell spheroids. B. Effect of β-O-Gln, α-O-Gln or ET-18-OCH3 on morphology of JIMT-1 stem cell spheroids. JIMT-1 cancer stem cells were grown for 7 days in ultra low adhesion 6 well plates. The tumorspheres formed were harvested, trypsinised and cell numbers were determined. Equal numbers of cells were dispersed into 48-well non-treated plates in mammocult medium and incubated in a CO2 incubator under static conditions. After spheres were formed, O-Gln, C-Gln or ET-18-OCH3 were added (0, 10, 20 and 30 μM) and incubation was for a total of 6 days with media supplementation after 3 days. Images for FIG. 7A were taken at day 0 and after 72 h following addition of the compounds. Images for FIG. 7B were taken after 6 days incubation with the compounds.
# The above studies were repeated with JIMT-1 spheroids.
# BT-474 cancer stem cells = assay: BT-474 cancer stem cell spheroid formation; type: cell-based, human; details: BT474 cancer stem cells, FIG. 1B
# Description: FIG. 1. A. Effect of β-C-Gln (β-AC1) on BT-474 cancer stem cell spheroid formation. BT-474 cancer stem cells were obtained by staining BT474 cells for ALDH1 and sorting the stained from unstained cells by flow cytometry. The ALDH1 stained cells were grown in ultra-low adhesion 6-well plates in mammocult medium for 7 days. The spheroids were isolated and trypsinised to generate single cells. The cells were then seeded for 2 days in ultra-low adhesion 6-well plates, and subsequently incubated in the absence or presence of C-Gln for up to 12 days. The media was replenished after 6 days. B. Effect of β-O-Gln (β-AO1), α-O-Gln (α-AO1), or ET-18-OCH3 on BT-474 cancer stem cell spheroid formation.
# Breast cancer stem cell enriched cell population was obtained by staining breast cancer cell lines BT-474 and JIMT-1 for aldehyde dehydrogenase 1 (ALDH1) using the assay kit from Stem Cell Technologies (Vancouver BC, Canada) according to the instructions of the manufacturer with the appropriate controls. […] The cell numbers were determined with a Coulter ZM counter and the cells were seeded into the appropriate low adhesion tissue culture ware for various studies. […]
smiles,measurement,setting,value
"CCCCCCCCCCCCCCCCCCOCC(COP(=O)([O-])OCC[N+](C)(C)C)OC (stereo not shown) [ET-18-OCH3, 1-O-octadecyl-2-O-methyl-glycerophosphocholine, reference compound]",viability at 30 µM,"[1]; Homo sapiens, BT-474, 144 h, read-out: viability relative to controls",~45%
same,"viability, % of controls",[2]; 20 or 30 μM,30-40 % of controls
same,cytotoxicity at 10 µM,"[2]; Homo sapiens, JIMT-1, 144 h, 10 μM, read-out: loss of viability",40%
"CCCCCCCCCCCCCCCCOC[C@H](CS[C@H]1O[C@H](CO)[C@@H](O)[C@H](O)[C@H]1N)OC [α-AS2, 1-O-Hexadecyl-2-O-methyl-3-S-(2′-amino-2′-deoxy-α-D-glucopyranosyl)-sn-glycerol]",cytotoxicity compared to β-O-Gln (β-AO1),cancer cell lines,not as active as β-O-Gln
"CCCCCCCCCCCCCCCCOC[C@H](COC1O[C@H](CO)[C@H](O)[C@H](O)[C@H]1N)OC (stereo partly drawn) [α-O-Galn, 1-O-Hexadecyl-2-O-methyl-3-O-(2′-amino-2′-deoxy-D-galactopyranosyl)-sn-glycerol]",Viability (% 0f control),[1]; 10 μM,around 10 % 0f control
same,Viability (% 0f control),"[1]; 10 μM, listed as α-Galn",9.64 % 0f control
same,Viability (% 0f control),"[1]; 20 μM, listed as α-Galn",0 % 0f control
same,Viability (% 0f control),"[1]; 30 μM, listed as α-Galn",0 % 0f control
same,loss of viability,[1]; 20 or 30 μM,Complete loss of viability
same,toxicity against the cancer stem cells,[1],quite toxic
same,generation of large acidic vacuoles,[3],generation of these vacuoles
same,spheroid formation,cancer stem cells,unable to form spheroids
"CCCCCCCCCCCCCCCCOC[C@H](COC1O[C@H](CO)[C@@H](O)[C@H](O)[C@H]1N)OC (stereo partly drawn) [α-O-Gln, 1-O-Hexadecyl-2-O-methyl-3-O-(2′-amino-2′-deoxy-D-glucopyranosyl)-sn-glycerol]",viability (trypan dye exclusion),BT474 cancer stem cells,not viable
same,loss of viability,[1]; 10 μM,about 60%
same,loss of viability,[1]; 20 or 30 μM,total loss of viability
same,generation of large acidic vacuoles,[3],generation of these vacuoles
same,loss of viability,[2]; 10 μM,90%
same,loss of viability,[2]; 20 or 30 μM,Complete loss of viability
same,spheroid integrity,[4],complete disintegration of the spheroids
same,cytotoxicity compared to β-O-Gln (β-AO1),cancer cell lines,superior activity
same,spheroid formation,BT-474 cancer stem cells,unable to form spheroids
same,spheroid formation,cancer stem cells,unable to form spheroids
CCCCCCCCCCCCCCCCOCC(CO[C@H]1O[C@H](CO)[C@@H](O)[C@H](O)[C@@H]1N)OC (stereo partly drawn) [α-O-Mann],Viability (% 0f control),[1]; 10 μM,134.3 % 0f control
same,Viability (% 0f control),[1]; 20 μM,58.84 % 0f control
same,Viability (% 0f control),"[1]; 30 μM, listed as α-Mann",25.9 % 0f control
same,toxicity against the cancer stem cells,[1],not as active as α-O-Galn
"CCCCCCCCCCCCCCCCOC[C@H](CS[C@@H]1O[C@H](CO)[C@@H](O)[C@H](O)[C@H]1N)OC [β-AS1, 1-O-Hexadecyl-2-O-methyl-3-S-(2′-amino-2′-deoxy-β-D-glucopyranosyl)-sn-glycerol]",cytotoxicity compared to β-O-Gln (β-AO1),cancer cell lines,not as active as β-O-Gln
"CCCCCCCCCCCCCCCCOC[C@H](COC1O[C@H](CO)[C@H](O)[C@H](O)[C@H]1N)OC (stereo partly drawn) [β-O-Galn, 1-O-Hexadecyl-2-O-methyl-3-O-(2′-amino-2′-deoxy-D-galactopyranosyl)-sn-glycerol]",Viability (% 0f control),"[1]; 10 μM, listed as β-Galn",153.7 % 0f control
same,Viability (% 0f control),"[1]; 20 μM, listed as β-Galn",48.0 % 0f control
same,Viability (% 0f control),"[1]; 30 μM, listed as β-Galn",32.16 % 0f control
same,toxicity against the cancer stem cells,[1],not as active as α-O-Galn
